How the values were obtained:
Assay in all cases: competitive isoTOP-ABPP
Assay type in all cases: binding
[1] = biological target: T1, SOD2 Superoxide dismutase (Homo sapiens, UniProt P04179); settings: for R value (DMSO/fragment) for probe 1 labeling: P04179_K68; for R value (DMSO/fragment) for probe 1 labeling / isoTOP-ABPP reactivity ratio at lysine P04179_K68 / isoTOP-ABPP ratio (R) at liganded lysine P04179_K68: 50 uM, in vitro; for R value (DMSO/fragment) for probe 1 labeling / isoTOP-ABPP reactivity ratio at lysine P04179_K68: 231 sol; for isoTOP-ABPP ratio (R) at liganded lysine P04179_K68: sol, 231
T1 construct: isoTOP-ABPP experiments performed in cell lysates (in vitro); endogenous in cells; host or cells: MDA-MB-231 soluble lysate
T1 sequence (P04179 25-222): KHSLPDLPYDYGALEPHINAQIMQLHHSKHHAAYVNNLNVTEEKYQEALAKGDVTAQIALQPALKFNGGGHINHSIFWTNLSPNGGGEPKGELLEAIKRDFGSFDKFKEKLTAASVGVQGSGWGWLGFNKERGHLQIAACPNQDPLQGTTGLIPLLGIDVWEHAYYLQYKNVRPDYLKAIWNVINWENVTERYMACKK
How it was run: (§1)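 Fragments at 50 μM (activated esters) or 100 μM (guanidinylating agents) were incubated with 0.5 ml lysate before probe labeling. After 0.1 mM STP-alkyne for 1 h, samples were clicked to isotopically distinct TEV tags, and R taken as DMSO-over-compound MS1 peak-area ratio.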

[2] = biological target: T2, MRPL12 39S ribosomal protein L12, mitochondrial (Homo sapiens, UniProt P52815); settings: for R value (DMSO/fragment) for probe 1 labeling: P52815_K87; for R value (DMSO/fragment) for probe 1 labeling / isoTOP-ABPP reactivity ratio at lysine P52815_K87 / isoTOP-ABPP ratio (R) at liganded lysine P52815_K87: 50 uM, in vitro; for R value (DMSO/fragment) for probe 1 labeling / isoTOP-ABPP reactivity ratio at lysine P52815_K87: 231 sol; for isoTOP-ABPP ratio (R) at liganded lysine P52815_K87: sol, 231; for isoTOP-ABPP ratio, lysine P52815_K87: 50 uM_231_sol_in vitro, possible other lysine B4DLN1_K87, P52815_K91
T2 construct: isoTOP-ABPP experiments performed in cell lysates (in vitro); endogenous in cells; host or cells: soluble proteome of human cancer cell lines (MDA-MB-231, Ramos, Jurkat)
How it was run: as §1

[3] = biological target: T3, LDHB L-lactate dehydrogenase B chain (Homo sapiens, UniProt P07195); settings: for R value (DMSO/fragment) for probe 1 labeling / isoTOP-ABPP reactivity ratio at lysine P07195_K82 / isoTOP-ABPP reactivity ratio at lysine P07195_K244 / isoTOP-ABPP ratio (R) at liganded lysine P07195_K244 / isoTOP-ABPP ratio (R) at liganded lysine P07195_K82: 50 uM, in vitro; for R value (DMSO/fragment) for probe 1 labeling / isoTOP-ABPP reactivity ratio at lysine P07195_K82 / isoTOP-ABPP reactivity ratio at lysine P07195_K244: 231 sol; for isoTOP-ABPP ratio (R) at liganded lysine P07195_K244 / isoTOP-ABPP ratio (R) at liganded lysine P07195_K82: sol, 231
T3 construct: isoTOP-ABPP experiments performed in cell lysates (in vitro); endogenous in cells; host or cells: MDA-MB-231 soluble lysate
How it was run: as §1

[4] = biological target: T4, CDK2 Cyclin-dependent kinase 2 (Homo sapiens, UniProt P24941); settings: for R value (DMSO/fragment) for probe 1 labeling: P24941_K33; for R value (DMSO/fragment) for probe 1 labeling / isoTOP-ABPP reactivity ratio at lysine P24941_K33 / isoTOP-ABPP ratio (R) at liganded lysine P24941_K33: 50 uM, in vitro; for R value (DMSO/fragment) for probe 1 labeling / isoTOP-ABPP reactivity ratio at lysine P24941_K33: 231 sol; for isoTOP-ABPP ratio (R) at liganded lysine P24941_K33: sol, 231
T4 construct: isoTOP-ABPP experiments performed in cell lysates (in vitro); endogenous in cells; host or cells: soluble proteome of human cancer cell lines (MDA-MB-231; Ramos and Jurkat also prepared)
How it was run: as §1

T3 sequence (P07195 whole entry, the tested form may be a part): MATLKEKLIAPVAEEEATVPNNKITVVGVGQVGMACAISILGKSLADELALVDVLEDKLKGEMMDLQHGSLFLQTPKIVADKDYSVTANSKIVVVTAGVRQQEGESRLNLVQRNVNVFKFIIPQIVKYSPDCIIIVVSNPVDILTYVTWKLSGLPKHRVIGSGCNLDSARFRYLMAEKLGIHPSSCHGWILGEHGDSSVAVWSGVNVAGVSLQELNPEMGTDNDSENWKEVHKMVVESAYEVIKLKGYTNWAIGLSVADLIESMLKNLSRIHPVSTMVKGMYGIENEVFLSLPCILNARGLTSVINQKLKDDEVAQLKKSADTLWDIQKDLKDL

O=C(Oc1c(F)c(F)c(F)c(F)c1F)C(c1ccccc1)c1ccccc1 [fragment 20, Pentafluorophenyl 2,2-diphenylacetate]
R value (DMSO/fragment) for probe 1 labeling [1]: 1.0 | R value (DMSO/fragment) for probe 1 labeling [2]: 0.9 | R value (DMSO/fragment) for probe 1 labeling ([3]; P07195_K82): 1.2 | R value (DMSO/fragment) for probe 1 labeling ([3]; P07195_K244): 1.0 | R value (DMSO/fragment) for probe 1 labeling [4]: 0.9

O=C(Oc1c(F)c(F)c(F)c(F)c1F)c1cc(C(F)(F)F)cc(C(F)(F)F)c1 [fragment 21, Pentafluorophenyl 3,5-bis(trifluoromethyl)benzoate]
R value (DMSO/fragment) for probe 1 labeling [1]: 1.2 | R value (DMSO/fragment) for probe 1 labeling [2]: 0.6 | R value (DMSO/fragment) for probe 1 labeling ([3]; P07195_K244): 1.0 | R value (DMSO/fragment) for probe 1 labeling [4]: 1.0

Cn1cc(CC(=O)Oc2c(F)c(F)c(F)c(F)c2F)c2ccccc21 [fragment 22, Pentafluorophenyl 2-(1-methyl-1H-indol-3-yl)acetate]
R value (DMSO/fragment) for probe 1 labeling [1]: 1.0 | R value (DMSO/fragment) for probe 1 labeling [2]: 1.4 | R value (DMSO/fragment) for probe 1 labeling ([3]; P07195_K82): 0.8 | R value (DMSO/fragment) for probe 1 labeling ([3]; P07195_K244): 1.0 | R value (DMSO/fragment) for probe 1 labeling [4]: 1.5

O=C(CCc1coc2cc(F)ccc2c1=O)Oc1c(F)c(F)c(F)c(F)c1F [fragment 26, Pentafluorophenyl 3-(7-fluoro-4-oxo-4H-chromen-3-yl)propanoate]
isoTOP-ABPP reactivity ratio at lysine P04179_K68 [1]: 1.2 | isoTOP-ABPP reactivity ratio at lysine P07195_K82 [3]: 0.7

O=C(CN1C(=O)c2ccccc2C1=O)Oc1c(F)c(F)c(F)c(F)c1F [fragment 27, Pentafluorophenyl 2-(1,3-dioxoisoindolin-2-yl)acetate]
isoTOP-ABPP reactivity ratio at lysine P04179_K68 [1]: 0.9

CCn1cc(C(=O)Oc2c(F)c(F)c(F)c(F)c2F)c(=O)c2ccc(C)nc21 [fragment 28, Pentafluorophenyl 1-ethyl-7-methyl-4-oxo-1,4-dihydro-1,8-naphthyridine-3-carboxylate]
isoTOP-ABPP reactivity ratio at lysine P04179_K68 [1]: 0.8 | isoTOP-ABPP reactivity ratio at lysine P52815_K87 [2]: 0.8

O=C(CCc1cn(-c2ccccc2)nc1-c1ccccc1)Oc1ccc([N+](=O)[O-])cc1[N+](=O)[O-] [fragment 29, 2,4-Dinitrophenyl 3-(1,3-diphenyl-1H-pyrazol-4-yl)propanoate]
isoTOP-ABPP reactivity ratio at lysine P52815_K87 [2]: 1.1 | isoTOP-ABPP reactivity ratio at lysine P24941_K33 [4]: 0.9

O=C(Oc1ccc([N+](=O)[O-])cc1[N+](=O)[O-])C(c1ccccc1)c1ccccc1 [fragment 30, 2,4-Dinitrophenyl 2,2-diphenylacetate]
isoTOP-ABPP reactivity ratio at lysine P04179_K68 [1]: 1.1 | isoTOP-ABPP reactivity ratio at lysine P07195_K82 [3]: 20.0 | isoTOP-ABPP reactivity ratio at lysine P07195_K244 [3]: 1.2

O=C(Oc1ccc([N+](=O)[O-])cc1[N+](=O)[O-])c1cc(C(F)(F)F)cc(C(F)(F)F)c1 [fragment 31, 2,4-Dinitrophenyl 3,5-bis(trifluoromethyl)benzoate]
isoTOP-ABPP reactivity ratio at lysine P04179_K68 [1]: 1.5

Cn1cc(CC(=O)Oc2ccc([N+](=O)[O-])cc2[N+](=O)[O-])c2ccccc21 [fragment 32, 2,4-Dinitrophenyl 2-(1-methyl-1H-indol-3-yl)acetate]
isoTOP-ABPP reactivity ratio at lysine P04179_K68 [1]: 1.1 | isoTOP-ABPP reactivity ratio at lysine P07195_K82 [3]: 0.8 | isoTOP-ABPP reactivity ratio at lysine P07195_K244 [3]: 1.0

COc1cc(CCC(=O)Oc2ccc([N+](=O)[O-])cc2[N+](=O)[O-])cc(OC)c1OC [fragment 33, 2,4-Dinitrophenyl 3-(3,4,5-trimethoxyphenyl)propanoate]
isoTOP-ABPP reactivity ratio at lysine P52815_K87 [2]: 2.1 | isoTOP-ABPP reactivity ratio at lysine P24941_K33 [4]: 0.7

O=C(Oc1ccc([N+](=O)[O-])cc1[N+](=O)[O-])C1CCN(C(=O)OCc2ccccc2)CC1 [fragment 34, 1-Benzyl 4-(2,4-dinitrophenyl) piperidine-1,4-dicarboxylate]
isoTOP-ABPP ratio (R) at liganded lysine P07195_K244 [3]: 1.0 | isoTOP-ABPP ratio (R) at liganded lysine P24941_K33 [4]: 1.0

O=C(Oc1ccc([N+](=O)[O-])cc1[N+](=O)[O-])c1ccc2ccccc2n1 [fragment 35, 2,4-Dinitrophenyl quinoline-2-carboxylate]
isoTOP-ABPP ratio (R) at liganded lysine P52815_K87 [2]: 0.9 | isoTOP-ABPP ratio (R) at liganded lysine P07195_K82 [3]: 0.6 | isoTOP-ABPP ratio (R) at liganded lysine P24941_K33 [4]: 1.6

O=C(CCc1coc2cc(F)ccc2c1=O)Oc1ccc([N+](=O)[O-])cc1[N+](=O)[O-] [fragment 36, 2,4-Dinitrophenyl 3-(7-fluoro-4-oxo-4H-chromen-3-yl)propanoate]
isoTOP-ABPP ratio (R) at liganded lysine P04179_K68 [1]: 2.1 | isoTOP-ABPP ratio (R) at liganded lysine P07195_K82 [3]: 0.9 | isoTOP-ABPP ratio (R) at liganded lysine P07195_K244 [3]: 20.0

O=C(Oc1ccc([N+](=O)[O-])cc1[N+](=O)[O-])c1ccc(-c2ccccc2)cc1 [fragment 37, 2,4-Dinitrophenyl [1,1′-biphenyl]-4-carboxylate]
isoTOP-ABPP ratio (R) at liganded lysine P04179_K68 [1]: 1.7 | isoTOP-ABPP ratio (R) at liganded lysine P07195_K82 [3]: 0.8 | isoTOP-ABPP ratio (R) at liganded lysine P07195_K244 [3]: 0.8 | isoTOP-ABPP ratio (R) at liganded lysine P24941_K33 [4]: 0.9

O=C(CC12CC3CC(CC(C3)C1)C2)Oc1ccc([N+](=O)[O-])cc1[N+](=O)[O-] [fragment 38, 2,4-Dinitrophenyl 2-(adamantan-1-yl)acetate]
isoTOP-ABPP ratio (R) at liganded lysine P52815_K87 [2]: 0.9 | isoTOP-ABPP ratio (R) at liganded lysine P07195_K82 [3]: 0.7 | isoTOP-ABPP ratio (R) at liganded lysine P24941_K33 [4]: 0.9

O=C(Oc1ccc([N+](=O)[O-])cc1[N+](=O)[O-])c1ccc(Oc2ccccc2)cc1 [fragment 39, 2,4-Dinitrophenyl 4-phenoxybenzoate]
isoTOP-ABPP ratio (R) at liganded lysine P04179_K68 [1]: 1.0 | isoTOP-ABPP ratio (R) at liganded lysine P52815_K87 [2]: 1.1 | isoTOP-ABPP ratio (R) at liganded lysine P07195_K82 [3]: 20.0 | isoTOP-ABPP ratio (R) at liganded lysine P07195_K244 [3]: 1.0 | isoTOP-ABPP ratio (R) at liganded lysine P24941_K33 [4]: 1.0

O=C(Oc1ccc([N+](=O)[O-])cc1[N+](=O)[O-])c1ccccc1Nc1cccc(C(F)(F)F)c1 [fragment 40, 2,4-Dinitrophenyl 2-((3-(trifluoromethyl)phenyl)amino)benzoate]
isoTOP-ABPP ratio (R) at liganded lysine P07195_K82 [3]: 20.0 | isoTOP-ABPP ratio (R) at liganded lysine P24941_K33 [4]: 1.0

O=C(Oc1ccc([N+](=O)[O-])cc1[N+](=O)[O-])C(c1ccccc1)(c1ccccc1)c1ccccc1 [fragment 42, 2,4-Dinitrophenyl 2,2,2-triphenylacetate]
isoTOP-ABPP ratio (R) at liganded lysine P52815_K87 [2]: 1.0 | isoTOP-ABPP ratio (R) at liganded lysine P07195_K82 [3]: 20.0 | isoTOP-ABPP ratio (R) at liganded lysine P24941_K33 [4]: 0.9

CC(=O)Oc1ccc([N+](=O)[O-])cc1[N+](=O)[O-] [fragment 43, 2,4-Dinitrophenyl acetate]
isoTOP-ABPP ratio (R) at liganded lysine P04179_K68 [1]: 1.4

O=C(CCc1ccc2c(c1)OCO2)Oc1ccc([N+](=O)[O-])cc1[N+](=O)[O-] [fragment 45, 2,4-Dinitrophenyl 3-(benzo[d][1,3]dioxol-5-yl)propanoate]
isoTOP-ABPP ratio, lysine P04179_K68 ([1]; 50 uM_231_sol_in vitro): 0.9 | isoTOP-ABPP ratio, lysine P52815_K87 [2]: 1.8 | isoTOP-ABPP ratio, lysine P24941_K33 ([4]; 50 uM_231_sol_in vitro): 4.6

O=C(Oc1c(F)c(F)c(C(F)(F)F)c(F)c1F)c1cc(C(F)(F)F)cc(C(F)(F)F)c1 [fragment 47, 2,3,5,6-Tetrafluoro-4-(trifluoromethyl)phenyl 3,5-bis(trifluoromethyl)benzoate]
isoTOP-ABPP ratio, lysine P52815_K87 [2]: 1.1 | isoTOP-ABPP ratio, lysine P07195_K244 ([3]; 50 uM_231_sol_in vitro): 1.0

O=C(Oc1c(F)c(F)cc(F)c1F)c1cc(C(F)(F)F)cc(C(F)(F)F)c1 [fragment 48, 2,3,5,6-Tetrafluorophenyl 3,5-bis(trifluoromethyl)benzoate]
isoTOP-ABPP ratio, lysine P52815_K87 [2]: 0.9

COC(=O)NC(=NC(=O)OCC1c2ccccc2-c2ccccc21)n1cccn1 [fragment 49, N-Methoxycarbonyl-N′-9-fluorenylmethoxycarbonyl-pyrazole-1-carboxamidine]
isoTOP-ABPP ratio, lysine P04179_K68 ([1]; 100 uM_231_sol_in vitro): 3.3

CC(C)(C)OC(=O)N=C(NC(=O)OC(C)(C)C)n1cccn1 [fragment 50, reference compound]
isoTOP-ABPP ratio, lysine P07195_K82 ([3]; 100 uM_231_sol_in vitro): 0.9 | isoTOP-ABPP ratio, lysine P07195_K244 ([3]; 100 uM_231_sol_in vitro): 1.1 | isoTOP-ABPP ratio, lysine P24941_K33 ([4]; 100 uM_231_sol_in vitro): 2.3

NC(=O)c1cc(C(F)(F)F)cc(C(F)(F)F)c1 [fragment 51, reference compound]
isoTOP-ABPP ratio, lysine P04179_K68 ([1]; 50 uM_231_sol_in vitro): 0.9 | isoTOP-ABPP ratio, lysine P52815_K87 [2]: 0.9

From patent US20210255193A1, “LYSINE REACTIVE PROBES AND USES THEREOF” (The Scripps Research Institute, priority 2017, published 2021)
